From patent US7375226B2, “Bi- and tricyclic substituted phenyl methanones” (Hoffman-La Roche Inc., priority 2004, dated 2008)

What follows are molecules tested against T1, mGlyT-1b (Mus musculus, UniProt P28571) (assay: Glycine uptake inhibition assay (mGlyT-1b), [3H]-glycine uptake in Flp-in-CHO cells). Conditions: Flp-in-CHO cells stably transfected with mGlyT1b cDNA; [3H]-glycine 60 nM and 25 μM non-radioactive glycine; read-out: IC50 (μM) at GlyT-1.
T1 construct: host or cells: Flp-in-CHO
T1 sequence (P28571 1-651 isoform P28571-2): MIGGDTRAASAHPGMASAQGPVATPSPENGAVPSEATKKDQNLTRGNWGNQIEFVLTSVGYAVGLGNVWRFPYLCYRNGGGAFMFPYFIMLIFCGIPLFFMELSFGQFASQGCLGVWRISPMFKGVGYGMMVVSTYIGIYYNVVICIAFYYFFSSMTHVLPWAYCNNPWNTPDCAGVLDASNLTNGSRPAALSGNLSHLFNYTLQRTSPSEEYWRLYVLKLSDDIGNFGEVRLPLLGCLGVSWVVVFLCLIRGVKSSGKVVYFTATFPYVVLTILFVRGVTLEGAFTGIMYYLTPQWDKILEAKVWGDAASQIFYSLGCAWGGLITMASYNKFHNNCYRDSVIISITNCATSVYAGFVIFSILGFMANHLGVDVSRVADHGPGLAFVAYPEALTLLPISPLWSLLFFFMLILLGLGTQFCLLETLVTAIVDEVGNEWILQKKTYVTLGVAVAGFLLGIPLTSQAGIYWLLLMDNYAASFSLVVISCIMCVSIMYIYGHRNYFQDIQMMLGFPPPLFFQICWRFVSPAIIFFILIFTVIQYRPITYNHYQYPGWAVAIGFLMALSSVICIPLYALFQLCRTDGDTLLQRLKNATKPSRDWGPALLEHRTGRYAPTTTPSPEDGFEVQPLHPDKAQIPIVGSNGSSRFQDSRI
Assay type: cell-based
Procedure: • DMEM complete medium: Nutrient mixture F-12 (Gibco Life-technologies), fetal bovine serum (FBS) 5%, (Gibco life technologies), Penicillin/Streptomycin 1% (Gibco life technologies), Hygromycin 0.6 mg/ml (Gibco life technologies), Glutamine 1 mM Gibco life technologies). • Uptake buffer (UB): 150 mM NaCl, 10 mM Hepes-Tris, pH 7.4, 1 mM CaCl2, 2.5 mM KCl, 2.5 mM MgSO4, 10 mM (+) D-glucose. • Flp-in™-CHO (Invitrogen Cat n° R758-07)cells stably transfected with mGlyT1b cDNA. • Glycine uptake inhibition assay (mGlyT-1b)
On day 1 mammalian cells, (Flp-in™-CHO), transfected with mGlyT-1b cDNA, were plated at the density of 40,000 cells/well in complete F-12 medium, without hygromycin in 96-well culture plates. On day 2, the medium was aspirated and the cells were washed twice with uptake buffer (UB). The cells were then incubated for 20 min at 22° C. with either (i) no potential competitor, (ii) 10 mM non-radioactive glycine, (iii) a concentration of a potential inhibitor. A range of concentration of the potential inhibitor was used to generate data for calculating the concentration of inhibitor resulting in 50% of the effect (e.g. IC50, the concentration of the competitor inhibiting glycine uptake of 50%). A solution was then immediately added containing [^3H]-glycine 60 nM (11-16 Ci/mmol) and 25 μM non-radioactive glycine. The plates were incubated with gentle shaking and the reaction was stopped by aspiration of the mixture and washing (three times) with ice-cold UB. The cells were lysed with scintillation liquid, shaken 3 hours and the radioactivity in the cells was counted using a scintillation counter.

Row | Structure (SMILES) | IC50 [µM]
1 | CC(C)Oc1ccc(S(C)(=O)=O)cc1C(=O)N1CCN2c3ccc(OC(F)(F)F)cc3CC2C1 (racemic) [Example 14, Rac-(2-Isopropoxy-5-methanesulfonyl-phenyl)-(8-trifluoromethoxy-3,4,10,10a-tetrahydro-1H-pyrazino[1,2-a]indol-2-yl)-methanone] | 0.154
2 | CC(C)Oc1ccc(S(C)(=O)=O)cc1C(=O)N1CCc2c(sc3ccc(Cl)cc23)C1 [Example 1, (6-Chloro-3,4-dihydro-1H-benzo[4,5]thieno[2,3-c]pyridin-2-yl)-(2-isopropoxy-5-methanesulfonyl-phenyl)-methanone] | 0.019
3 | CS(=O)(=O)c1ccc(N2CCOCC2)c(C(=O)N2CCc3c(sc4ccc(Cl)cc34)C2)c1 [Example 2, (6-Chloro-3,4-dihydro-1H-benzo[4,5]thieno[2,3-c]pyridin-2-yl)-(5-methanesulfonyl-2-morpholin-4-yl-phenyl)-methanone] | 0.187
4 | CC(C)COc1ccc(S(C)(=O)=O)cc1C(=O)N1CCc2nc(-c3cccs3)sc2C1 [Example 5, (2-Isobutoxy-5-methanesulfonyl-phenyl)-(2-thiophen-2-yl-6,7-dihydro-4H-thiazolo[5,4-c]pyridin-5-yl)-methanone] | 0.098
5 | CC(C)Oc1ccc(C#N)cc1C(=O)N1CCc2c(sc3ccc(Cl)cc23)C1 [Example 19, 3-(6-Chloro-3,4-dihydro-1H-benzo[4,5]thieno[2,3-c]pyridine-2-carbonyl)-4-isopropoxy-benzonitrile] | 0.339
6 | CS(=O)(=O)c1ccc(OCC2CC2)c(C(=O)N2CCc3c(sc4ccc(Cl)cc34)C2)c1 [Example 20, (6-Chloro-3,4-dihydro-1H-benzo[4,5]thieno[2,3-c]pyridin-2-yl)-(2-cyclopropylmethoxy-5-methanesulfonyl-phenyl)-methanone] | 0.026
7 | C[C@H](Oc1ccc(S(C)(=O)=O)cc1C(=O)N1CCc2c(sc3ccc(Cl)cc23)C1)C(F)(F)F [Example 22, (6-Chloro-3,4-dihydro-1H-benzo[4,5]thieno[2,3-c]pyridin-2-yl)-[5-methanesulfonyl-2-((S)-2,2,2-trifluoro-1-methyl-ethoxy)-phenyl]-methanone] | 0.023
8 | CC(C)COc1ccc(S(C)(=O)=O)cc1C(=O)N1CCc2nc(-c3ccc(C(F)(F)F)cc3)sc2C1 [Example 23, (2-Isobutoxy-5-methanesulfonyl-phenyl)-[2-(4-trifluoromethyl-phenyl)-6,7-dihydro-4H-thiazolo[5,4-c]pyridin-5-yl]-methanone] | 0.341

Now from value to molecule:

Row | IC50 [µM] | Structure (SMILES)
9 | 0.407 | CC(C)Oc1ccc(S(C)(=O)=O)cc1C(=O)N1CCc2nc(-c3cccs3)sc2C1 [Example 6, (2-Isopropoxy-5-methanesulfonyl-phenyl)-(2-thiophen-2-yl-6,7-dihydro-4H!-thiazolo[5,4-c]pyridin-5-yl)-methanone]
10 | 0.134 | CC(C)Oc1ccc(S(C)(=O)=O)cc1C(=O)N1CCn2c(cc3ccc(Cl)cc32)C1 [Example 9, (7-Chloro-3,4-dihydro-1H-pyrazino[1,2-a]indol-2-yl)-(2-isopropoxy-5-methanesulfonyl-phenyl)-methanone]
11 | 0.088 | CC(C)Oc1ccc(S(C)(=O)=O)cc1C(=O)N1CCn2c(cc3cc(OC(F)(F)F)ccc32)C1 [Example 11, (2-Isopropoxy-5-methanesulfonyl-phenyl)-(8-trifluoromethoxy-3,4-dihydro-1H-pyrazino[1,2-a]indol-2-yl)-methanone]
12 | 0.367 | CS(=O)(=O)c1ccc(OC2CCCC2)c(C(=O)N2CCn3c(nc4ccccc43)C2)c1 [Example 15, (2-Cyclopentyloxy-5-methanesulfonyl-phenyl)-(3,4-dihydro-1H-benzo[4,5]imidazo[1,2-a]pyrazin-2-yl)-methanone]
